Reference: patent US11571397B2, “Compositions and methods for treating seizure-induced sudden death” (ZOGENIX INTERNATIONAL LIMITED, priority 2018, dated 2023)

Assay: Preliminary pharmacokinetic experiments in DBA/1 mice
Assay type: in vivo, mouse
Conditions: 16 h after 15 mg/kg
Protocol: DBA/1 mice show consistent susceptibility to sudden death due to S-IRA immediately following AGSz unless resuscitation is rapidly provided. In the present study FFA exerted a significant dose- and time-dependent blockade of S-IRA and AGSz. […] The significant incidence of selective S-IRA blockade was also seen in the mice that were tested initially at 16 h following 15 mg/kg of FFA (FIG. 4B), further confirming the effectiveness of the drug and the time-course of the effect. […] Furthermore, the dose of 15 mg/kg FFA in adult mouse, based on body surface areas in accordance with Reagan-Shaw and co-workers, translates to the clinically effective range [1.8 mg/kg/day (child) or 1.2 mg/kg/day (adult)] used in patients. The presently disclosed FFA doses are also similar to those in the rodent studies, which established the original usefulness of this drug.

Structure (SMILES): CCNC(C)Cc1cccc(C(F)(F)F)c1 (racemic) [FFA, 3-trifluoromethyl-N-ethylamphetamine]
- plasma level of FFA and area under the curve vs levels in Dravet syndrome patients after single oral dose (0.8 mg/kg): comparable
